Laboratory results published in article PMC7532004, “Site-specific effects of neurosteroids on GABAA receptor activation and desensitization” (eLife, 2020).

Molecular target: T1, α1β3 GABAAR WT (Homo sapiens, UniProt P14867+P28472)
T1 construct: inserted between the fourth and fifth residues of the mature peptide; photolabeling full-length heteropentameric GABAARs in native membranes; expressed in transfected cells
T1 sequence (P14867 28-456): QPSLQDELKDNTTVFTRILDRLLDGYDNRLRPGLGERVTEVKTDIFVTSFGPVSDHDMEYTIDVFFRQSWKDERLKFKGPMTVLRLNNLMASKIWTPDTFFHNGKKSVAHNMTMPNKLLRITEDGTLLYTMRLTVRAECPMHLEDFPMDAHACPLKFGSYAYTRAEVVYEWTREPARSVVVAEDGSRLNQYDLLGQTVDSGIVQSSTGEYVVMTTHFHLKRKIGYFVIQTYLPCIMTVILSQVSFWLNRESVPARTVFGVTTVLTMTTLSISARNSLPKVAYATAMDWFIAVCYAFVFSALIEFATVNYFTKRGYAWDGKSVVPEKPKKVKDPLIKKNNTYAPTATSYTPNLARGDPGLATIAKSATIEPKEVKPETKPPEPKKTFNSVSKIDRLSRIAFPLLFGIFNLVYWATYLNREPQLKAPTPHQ
T1 sequence (P28472 26-473): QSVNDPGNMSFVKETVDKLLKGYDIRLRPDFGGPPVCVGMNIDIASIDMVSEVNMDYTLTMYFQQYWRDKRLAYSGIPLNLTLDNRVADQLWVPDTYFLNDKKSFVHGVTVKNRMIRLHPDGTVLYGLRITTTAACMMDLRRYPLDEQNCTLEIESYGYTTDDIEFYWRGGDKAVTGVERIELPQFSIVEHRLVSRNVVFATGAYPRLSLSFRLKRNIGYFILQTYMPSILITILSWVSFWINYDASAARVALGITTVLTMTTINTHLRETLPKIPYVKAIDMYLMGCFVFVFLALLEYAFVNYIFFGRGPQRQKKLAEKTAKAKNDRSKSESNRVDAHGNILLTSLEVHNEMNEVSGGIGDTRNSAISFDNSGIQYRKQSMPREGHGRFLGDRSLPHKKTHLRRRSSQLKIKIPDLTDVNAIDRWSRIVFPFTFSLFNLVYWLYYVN
Assay: [3H]muscimol binding to HEK cell membranes (neurosteroid modulation and isotherms), WT receptor
Details: WT α1β3
Description: Stably transfected cells were plated into dishes. After reaching 50% confluence, GABAA receptors were expressed by inducing cells with 1 μg/ml of doxycycline with the addition of 5 mM sodium butyrate. Cells were harvested 48 to 72 hr after induction. HEK cells, after induction, were grown to 100% confluence, harvested and washed with 10 mM potassium phosphate, 100 mM potassium chloride (pH 7.5) plus protease inhibitors (Sigma-Aldrich, St. Louis, MO) two times. The cells were collected by centrifugation at 1,000 g at 4°C for 5 min. The cells were homogenized with a glass mortar and a Teflon pestle for ten strokes on ice. The pellet containing the membrane proteins was collected after centrifugation at 20,000 g at 4°C for 45 min and resuspended in a buffer containing 10 mM potassium phosphate, 100 mM potassium chloride (pH 7.5). The protein concentration was determined with micro-BCA protein assay and membranes were stored at −80°C.
[^3H]muscimol-binding assays were performed using a previously described method ([Chen et al., 2019]). […] Assay tubes were incubated for 1 hr on ice in the dark. […] Membranes were collected on Whatman/GF-C glass filter papers using a Brandel cell harvester (Gaithersburg, MD). To perform [^3H]muscimol binding isotherms, 100 μg/ml aliquots of membrane protein were incubated with 0.3 nM–1 μM [^3H]muscimol for 1 hr on ice in the dark. The specific activity for [^3H]muscimol concentrations from 30 nM to 1 μM was reduced to 2 Ci/mmol by dilution with nonradioactive muscimol. The membranes were collected on Whatman/GF-B glass filter papers using a vacuum manifold. […] For [^3H]muscimol-binding experiments examining competitive interactions between neurosteroids, the combined neurosteroids (0.3 μM 3α5αP or 3 μM KK148 ±30 μM KK150) or the same volume of dimethyl sulfoxide (DMSO) were added to the membranes which were then incubated with 3 nM [^3H]muscimol on ice for 1 hr. Time courses of neurosteroid [^3H]muscimol binding enhancement were examined by adding 10 µM of neurosteroids (3α5αP, 3β5αP) to membranes that had been fully equilibrated with 3 nM [^3H]muscimol for 1 hr on ice; binding was then measured as a function of time at 1, 3, 10, 30, 60 min. The membranes were collected on Whatman/GF-B glass filter papers using a vacuum manifold. Radioactivity bound to the filters was measured by liquid scintillation spectrometry using Bio-Safe II (Research Products International, Mount Prospect, IL).

CCOC(=O)c1cncn1[C@H](C)c1ccccc1 [Etomidate, etomidate]
Emax (% of control) of [3H]muscimol binding (3 nM [3H]muscimol, 100% means no effect): 331.1 ± 9.9 % of control | Bmax of [3H]muscimol binding isotherm in the presence of the modulator (etomidate 100 μM, 3α5αP 30 μM, KK148 30 μM, control 9.8 ± 0.8): 10.1 ± 0.5 pmol/mg
